{"source": "patent US8969568B2", "about": "“Substituted naphthyridines and their use as medicaments” (Boehringer Ingelheim Pharma GmbH & Co. KG, priority 2010, dated 2015)"}
{"molecular_target": "Recombinant human Syk (amino acids 342-635), GST-Syk kinase fusion protein (Homo sapiens (Human), UniProt P43405)", "assay": "Syk Kinase Test (Kinase Glo luminescence)", "details": "read-out: IC50-value, GST-Syk 4 nM final, ATP remaining, 60 minutes at room temperature", "units": {"IC50": "nM"}, "experimental": "The catalytic activity of the GST-Syk kinase fusion protein was determined using the Kinase Glo® Luminescence Kinase test (Promega; V6712). In this homogeneous test the amount of ATP remaining after the kinase reaction is quantified by a luciferin-luciferase reaction using luminescence. The luminescence signal obtained correlates with the amount of ATP still present and thus correlates inversely with the activity of the protein kinase.\nGST-Syk was diluted to 6.0 nM in the test buffer and 10 μl of this dilution were used in the kinase test (final concentration of Syk=4 nM in a total volume of 15 μl).\nPositive controls are the reaction mixtures that contain no test substance; negative controls (blanks) are reaction mixtures that contain no kinase.\nAfter 60 minutes, 10 μl Kinase-Glo® solution (Promega, Cat. #V6712) (heated to room temperature) were added to each well and incubation was continued for a further 15 minutes. The plates were read in a Microplate Scintillation and Luminescence Counter (Canberra Packard GmbH).\nData Evaluation and Calculation:\nThe output file of the “Counter” is a text file that contains the well number and measured counts in two columns. […] Based on this values the % inherent value for the measurement of each substance concentration was calculated using an “MS-Excel—VB macro”. […] The IC50 values were calculated from the % inhibition values using “GraphPadPrism” software (Version 5) (GraphPad Software Inc.)."}
{"smiles": "COc1cc(-c2cc3ncccc3c(O[C@H](C)[C@H]3CNC(=O)C3)n2)cc(OC)c1OC", "note": "[Example 35, (R)-4-[(R)-1-[7-(3,4,5-Trimethoxy-phenyl)-[1,6]naphthyridin-5-yloxy]-ethyl]-pyrrolidin-2-one]", "IC50": 0.2}
{"smiles": "COc1cc(-c2cc3ncccc3c(OC[C@H]3CNC(=O)C3)n2)cc(OC)c1OC1CCOCC1", "note": "[Example 44]", "IC50": 16.1}
{"smiles": "COc1cc(-c2cc3ncccc3c(O[C@H](C)[C@H]3CNC(=O)C3)n2)ccc1OC1CCOCC1", "note": "[Example 63]", "IC50": "< 0.1"}
